Results reported in BigSolDB 2.1.

O=C(O)CCCCCCCCCCC(=O)O
solubility (mole fraction)
Conditions | 288.15 K | 293.15 K | 298.15 K | 303.15 K | 308.15 K | 313.15 K | 318.15 K | 323.15 K
in 2-butanone | 0.0025 | 0.0036 | 0.005 | 0.007 | 0.0097 | 0.0133 | 0.0189 | 0.0255
in 3-pentanone | 0.0013 | 0.0018 | 0.0026 | 0.0036 | 0.005 | 0.0068 | 0.0094 | 0.0128
in acetic acid | 0.0032 | 0.0045 | 0.006 | 0.0079 | 0.0112 | 0.0155 | 0.02 | 0.0268
in acetone | 0.003 | 0.0041 | 0.0058 | 0.0077 | 0.0107 | 0.0145 | 0.0193 | 0.0257
in ethanol | 0.0083 | 0.0107 | 0.0145 | 0.0194 | 0.025 | 0.0317 | 0.0408 | 0.0516
in ethyl acetate | 0.0012 | 0.0017 | 0.0024 | 0.0034 | 0.0048 | 0.0066 | 0.009 | 0.0122
